Laboratory results: patent US20230295157A1, “3-(1H-IMIDAZOL-2-YL)-2,3,8,8A-TETRAHYDROINDOLIZIN-5(1H)-ONE DERIVATIVES USEFUL AS FACTOR XIA INHIBITORS” (JANSSEN PHARMACEUTICA NV, priority 2020, published 2023)
Read-outs that look alike come from different tables or passages of the source.

Tests used:
[1] = target: human plasma kallikrein (Homo sapiens (Human), UniProt P03952); assay: Kallikrein inhibition assay (FLINT) utilizing a quenched AMC peptide substrate; format: biochemical; conditions: 30 min preincubation, kinetic reads over 30 min, Z-Gly-Pro-Arg-AMC substrate 50 μM; read-out: Kallikrein Kin Inh IC50
Sequence of human plasma kallikrein (P03952 391-638): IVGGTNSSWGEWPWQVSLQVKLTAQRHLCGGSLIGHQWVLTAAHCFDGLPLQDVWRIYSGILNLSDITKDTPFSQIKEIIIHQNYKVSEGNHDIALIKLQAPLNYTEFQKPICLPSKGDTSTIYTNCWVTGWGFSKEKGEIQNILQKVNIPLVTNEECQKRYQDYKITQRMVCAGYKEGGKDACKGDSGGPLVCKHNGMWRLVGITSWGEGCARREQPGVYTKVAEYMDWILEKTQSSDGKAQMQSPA
Sequence of human plasma kallikrein (P03952 20-390 partner): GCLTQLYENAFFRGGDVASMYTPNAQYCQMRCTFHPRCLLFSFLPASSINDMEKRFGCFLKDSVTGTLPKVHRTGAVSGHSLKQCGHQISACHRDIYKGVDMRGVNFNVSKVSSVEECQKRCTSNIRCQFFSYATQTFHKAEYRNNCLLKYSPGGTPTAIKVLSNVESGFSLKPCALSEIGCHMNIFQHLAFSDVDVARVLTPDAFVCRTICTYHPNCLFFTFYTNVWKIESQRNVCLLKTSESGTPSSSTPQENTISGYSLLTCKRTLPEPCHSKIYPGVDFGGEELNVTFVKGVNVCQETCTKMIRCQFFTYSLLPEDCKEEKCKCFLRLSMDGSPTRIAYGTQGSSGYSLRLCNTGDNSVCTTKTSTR
Procedure, shortened: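 Enzyme (2 nM final) pre-incubated 30 min at room temperature with compound (11-point, 3-fold, top 1 μM, 2% DMSO), then 50 μM Z-Gly-Pro-Arg-AMC added in Tris pH 7.5 buffer. Kinetic fluorescence 340/440 nm every 5 min over 30 min; IC50 from 4-parameter logistic fit.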

[2] = target: Factor XIa (Homo sapiens (Human), UniProt P03951); assay: Factor XIa inhibition assay (FLINT) utilizing a fluorophore-quencher pair peptide substrate; format: biochemical; conditions: 30 min preincubation, kinetic reads over 30 min, read-out: FXIa Kin Inh IC50
Sequence of Factor XIa (P03951 388-625): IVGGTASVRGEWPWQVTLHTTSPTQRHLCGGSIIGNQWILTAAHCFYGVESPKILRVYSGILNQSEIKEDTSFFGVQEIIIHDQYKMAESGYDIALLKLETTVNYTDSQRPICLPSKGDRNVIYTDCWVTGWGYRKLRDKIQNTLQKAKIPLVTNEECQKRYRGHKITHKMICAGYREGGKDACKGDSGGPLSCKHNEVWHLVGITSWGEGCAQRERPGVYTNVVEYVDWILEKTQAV
Sequence of Factor XIa (P03951 19-387 partner): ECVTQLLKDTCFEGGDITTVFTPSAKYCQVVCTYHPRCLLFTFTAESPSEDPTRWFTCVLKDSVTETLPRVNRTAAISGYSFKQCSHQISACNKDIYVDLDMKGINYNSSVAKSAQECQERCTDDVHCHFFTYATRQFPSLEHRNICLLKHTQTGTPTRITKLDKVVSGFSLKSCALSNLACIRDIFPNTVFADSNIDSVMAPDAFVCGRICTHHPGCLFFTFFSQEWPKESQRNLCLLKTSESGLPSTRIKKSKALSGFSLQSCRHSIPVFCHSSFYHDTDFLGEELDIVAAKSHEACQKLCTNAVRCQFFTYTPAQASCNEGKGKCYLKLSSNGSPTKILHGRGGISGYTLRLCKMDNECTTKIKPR
Procedure, shortened: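 FXIa ([…]) preincubated 30 min with compound (11-point 3-fold dilution, top 100 nM, 2% DMSO), then 15 μM quenched FXI Arg146-based peptide added; Tris pH 7.5, CaCl2, BSA, CHAPS. Fluorescence 485/520 nm read kinetically every 5 min over 30 min at RT; IC50 by 4-parameter fit.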

[3] = 5Fam-[…]-K5Tamra substrate 15 μM
[4] = 5Fam-KLTRAETV-K5Tamra substrate 15 μM

| SMILES | IC50 [1] | IC50 [2, 3] | IC50 [2, 4] |
| --- | --- | --- | --- |
| CCOC(=O)Nc1ncccc1-c1c[nH]c([C@@H]2CC[C@H]3CC(c4c(-n5cnnn5)ccc(Cl)c4F)=CC(=O)N32)n1 [Example 262, Ethyl N-[3-[2-[(3S,8aS)-7-[3-chloro-2-fluoro-6-(tetrazol-1-yl)phenyl]-5-oxo-2,3,8,8a-tetrahydro-1H-indolizin-3-yl]-1H-imidazol-4-yl]-2-pyridyl]carbamate] | 150 nM | – | 45.8 nM |
| O=C1C=C(c2c(-n3cnnn3)ccc(Cl)c2F)C[C@H]2CCC(c3ncc(-c4n[nH]cc4Cl)[nH]3)N12 (stereo partly drawn) [Example 4, (8aR)-7-[3-Chloro-2-fluoro-6-(tetrazol-1-yl)phenyl]-3-[5-(4-chloro-1H-pyrazol-3-yl)-1H-imidazol-2-yl]-2,3,8,8a-tetrahydro-1H-indolizin-5-one] | 867 nM | – | 91.7 nM |
| Cc1cc(C(=O)Nc2nccc(-c3cnc([C@@H]4CC[C@@H]5CC(c6c(-n7cnnn7)ccc(Cl)c6F)=CC(=O)N54)[nH]3)c2F)on1 [Example 5, N-[4-[2-[(3S,8aR)-7-[3-Chloro-2-fluoro-6-(tetrazol-1-yl)phenyl]-5-oxo-2,3,8,8a-tetrahydro-1H-indolizin-3-yl]-1H-imidazol-5-yl]-3-fluoro-2-pyridyl]-3-methyl-isoxazole-5-carboxamide] | 48.8 nM | – | 4.2 nM |
| N#CC1(c2nccc(-c3cnc([C@@H]4CC[C@@H]5CC(c6c(-n7cnnn7)ccc(Cl)c6F)=CC(=O)N54)[nH]3)c2F)CC1 (single isomer, unassigned) [Example 139, 1-(4-(2-((3S,8a*R)-7-(3-chloro-2-fluoro-6-(1H-tetrazol-1-yl)phenyl)-5-oxo-1,2,3,5,8,8a-hexahydroindolizin-3-yl)-1H-imidazol-5-yl)-3-fluoropyridin-2-yl)cyclopropane-1-carbonitrile] | 22 nM | – | 29.1 nM |
| CC(C)(O)COc1nccc(-c2c[nH]c([C@@H]3CC[C@@H]4CC(c5c(-n6cc(C(F)(F)F)nn6)ccc(Cl)c5F)=CC(=O)N43)n2)c1F [Example 191, (3S,8aR)-7-(3-Chloro-2-fluoro-6-(4-(trifluoromethyl)-1H-1,2,3-triazol-1-yl)phenyl)-3-(4-(3-fluoro-2-(2-hydroxy-2-methylpropoxy)pyridin-4-yl)-1H-imidazol-2-yl)-2,3,8,8a-tetrahydroindolizin-5(1H)-one] | 34.3 nM | 3.8 nM | – |
| CC12CC[C@@H](c3ncc(-c4ccnc(CO)c4F)[nH]3)N1C(=O)C=C(c1c(-n3cnnn3)ccc(Cl)c1F)C2 (stereo partly drawn) [Example 391, (3S)-7-(3-chloro-2-fluoro-6-(1H-tetrazol-1-yl)phenyl)-3-(5-(3-fluoro-2-(hydroxymethyl)pyridin-4-yl)-1H-imidazol-2-yl)-8a-methyl-2,3,8,8a-tetrahydroindolizin-5(1H)-one] | 35.4 nM | – | 33.3 nM |
| [2H]c1nc([C@H]2CC[C@]3([2H])CC(c4c(-n5cnnn5)ccc(Cl)c4F)=CC(=O)N23)[nH]c1-c1c(F)nc(N)c([2H])c1[2H] (single isomer, unassigned) [Example 131, (3R*,8aR*)-3-(5-(6-amino-2-fluoropyridin-3-yl-4,5-d2)-1H-imidazol-2-yl-4-d)-7-(3-chloro-2-fluoro-6-(1H-tetrazol-1-yl)phenyl)-2,3,8,8a-tetrahydroindolizin-5(1H)-one-8a-d] | 11.7 nM | 0.9 nM | – |
| Nc1ccc(-c2cnc([C@@H]3CC[C@@H]4CC(c5cc(Cl)ccc5-n5cnnn5)=CC(=O)N43)[nH]2)c(F)n1 (single isomer, unassigned) [Example 122, (3*S,8aR)-3-(5-(6-amino-2-fluoropyridin-3-yl)-1H-imidazol-2-yl)-7-(5-chloro-2-(1H-tetrazol-1-yl)phenyl-3-d)-2,3,8,8a-tetrahydroindolizin-5(1H)-one] | 53.1 nM | – | 4 nM |

The remaining lines, values ahead:

| IC50 [1] | IC50 [2, 3] | IC50 [2, 4] | SMILES |
| --- | --- | --- | --- |
| 0.8 nM | 0.3 nM | – | O=C1CCc2cc(-c3cnc([C@@H]4CC[C@@H]5CC(c6c(-n7cnnn7)ccc(Cl)c6F)=CC(=O)N54)[nH]3)ccc2N1 (relative stereo) [Example 281, 6-(2-((3S,8aR)-7-(3-Chloro-2-fluoro-6-(1H-tetrazol-1-yl)phenyl)-5-oxo-1,2,3,5,8,8a-hexahydroindolizin-3-yl)-1H-imidazol-5-yl)-3,4-dihydroquinolin-2(1H)-one] |
| 5.6 nM | – | 0.6 nM | CC1(C)C[C@@H](c2ncc(-c3ccc(N)nc3Cl)[nH]2)N2C(=O)C=C(c3c(-n4cnnn4)ccc(Cl)c3F)CC21 (stereo partly drawn) [Example 349, (3S)-3-(5-(6-Amino-2-chloropyridin-3-yl)-1H-imidazol-2-yl)-7-(3-chloro-2-fluoro-6-(1H-tetrazol-1-yl)phenyl)-1,1-dimethyl-2,3,8,8a-tetrahydroindolizin-5(1H)-one] |
| 2.8 nM | – | 1.7 nM | O=C1C=C(c2c(-n3cnnn3)ccc(Cl)c2F)CC2CCC(c3ncc(-c4ccnc(-c5ccn[nH]5)c4)[nH]3)N12 (stereo not drawn) [Example 53, 3-(5-(2-(1H-pyrazol-5-yl)pyridin-4-yl)-1H-imidazol-2-yl)-7-(3-chloro-2-fluoro-6-(1H-tetrazol-1-yl)phenyl)-2,3,8,8a-tetrahydroindolizin-5(1H)-one] |
| 11.4 nM | 31.3 nM | – | Nc1ccnn1-c1cc(-c2cnc([C@H]3CC[C@@H]4CC(c5c(-n6cnnn6)ccc(Cl)c5F)=CC(=O)N43)[nH]2)ccn1 (single isomer, unassigned) [Example 49, (3R*,8aR)-3-(5-(2-(5-amino-1H-pyrazol-1-yl)pyridin-4-yl)-1H-imidazol-2-yl)-7-(3-chloro-2-fluoro-6-(1H-tetrazol-1-yl)phenyl)-2,3,8,8a-tetrahydroindolizin-5(1H)-one] |
| 6.9 nM | – | 9.1 nM | Nc1noc2ccc(-c3cnc([C@@H]4CC[C@@H]5CC(c6c(-n7cnnn7)ccc(Cl)c6F)=CC(=O)N54)[nH]3)cc12 [Example 201, (3S,8aR)-3-(5-(3-aminobenzo[d]isoxazol-5-yl)-1H-imidazol-2-yl)-7-(3-chloro-2-fluoro-6-(1H-tetrazol-1-yl)phenyl)-2,3,8,8a-tetrahydroindolizin-5(1H)-one] |
| 9.4 nM | – | 1.2 nM | CC(C)(O)COc1nccc(-c2c[nH]c([C@@H]3CC[C@@H]4CC(c5c(-n6cnnn6)ccc(Cl)c5F)=CC(=O)N43)n2)c1F [Example 190] |
| 6 nM | – | 3.7 nM | O=C1C=C(c2c(-n3cnnn3)ccc(Cl)c2F)C[C@H]2CC[C@H](c3nc(F)c(-c4ccnc(-n5cncn5)c4F)[nH]3)N12 (single isomer, unassigned) [Example 92, 7-[3-Chloro-2-fluoro-6-(tetrazol-1-yl)phenyl]-3-[4-fluoro-5-[3-fluoro-2-(1,2,4-triazol-1-yl)-4-pyridyl]-1H-imidazol-2-yl]-2,3,8,8a-tetrahydro-1H-indolizin-5-one] |
| 4.1 nM | – | 3.7 nM | O=C1C=C(c2c(-n3cnnn3)ccc(Cl)c2F)C[C@@H]2CC[C@H](c3ncc(-c4ccnc(N5CCC[C@@H](O)C5)c4F)[nH]3)N12 (stereo in doubt) [Example 187, (3R,8aS)-7-(3-chloro-2-fluoro-6-(1H-tetrazol-1-yl)phenyl)-3-(5-(3-fluoro-2-((R)-3-hydroxypiperidin-1-yl)pyridin-4-yl)-1H-imidazol-2-yl)-2,3,8,8a-tetrahydroindolizin-5(1H)-one] |
| 7 nM | – | 1.7 nM | O=C1C=C(c2c(-n3cnnn3)ccc(Cl)c2F)C[C@H]2CC[C@@H](c3nc(Cl)c(-c4ccnc([C@@H](O)C(F)(F)F)c4)[nH]3)N12 [Example 173, (3S,8aR)-7-(3-chloro-2-fluoro-6-(1H-tetrazol-1-yl)phenyl)-3-(4-chloro-5-(2-((R)-2,2,2-trifluoro-1-hydroxyethyl)pyridin-4-yl)-1H-imidazol-2-yl)-2,3,8,8a-tetrahydroindolizin-5(1H)-one] |
| 1.2 nM | 0.6 nM | – | O=C1CCc2cc(-c3cnc([C@@H]4CC[C@H]5CC(c6c(-n7cnnn7)ccc(Cl)c6F)=CC(=O)N54)[nH]3)ccc2N1 (relative stereo) [Example 280, 6-(2-((3S,8aS)-7-(3-Chloro-2-fluoro-6-(1H-tetrazol-1-yl)phenyl)-5-oxo-1,2,3,5,8,8a-hexahydroindolizin-3-yl)-1H-imidazol-5-yl)-3,4-dihydroquinolin-2(1H)-one] |
| 8.5 nM | – | 2.1 nM | O=C1C=C(c2c(-n3cnnn3)ccc(Cl)c2F)CC2CC[C@@H](c3nc(-c4ccnc(OCCO)c4)c[nH]3)N12 (single isomer, unassigned) [Example 9] |
| 1.5 nM | – | 0.6 nM | NC(=O)c1ccc(-c2nc([C@@H]3CC[C@H]4CC(c5c(-n6cc(C(F)(F)F)nn6)ccc(Cl)c5F)=CC(=O)N43)[nH]c2Cl)s1 [Example 202, 5-(5-Chloro-2-((3S,8aS)-7-(3-chloro-2-fluoro-6-(4-(trifluoromethyl)-1H-1,2,3-triazol-1-yl)phenyl)-5-oxo-1,2,3,5,8,8a-hexahydroindolizin-3-yl)-1H-imidazol-4-yl)thiophene-2-carboxamide] |
| 1 nM | – | 0.3 nM | O=C1Nc2ccc(-c3cnc([C@@H]4CCC5CC(c6c(-n7cnnn7)ccc(Cl)c6F)=CC(=O)N54)[nH]3)cc2CO1 (stereo partly drawn) [Example 297, 6-(2-((3S)-7-(3-Chloro-2-fluoro-6-(1H-tetrazol-1-yl)phenyl)-5-oxo-1,2,3,5,8,8a-hexahydroindolizin-3-yl)-1H-imidazol-5-yl)-1H-benzo[d][1,3]oxazin-2(4H)-one] |
